Experiments:
Enterobacter Faecalis = assay: Effect of methylene blue on concentration of a gram positive organism without light exposure (FIG. 3); format: cell-based
Procedure: FIG. 3 is a representation of the effect of methylene blue (12 mg/100 ml) on concentration of a gram positive organism, Enterobacter Faecalis, without light exposure.
(§1) In a series of tests, with a gram negative and a gram positive organism, methylene blue inactivated all bacteria within 1 day, while heparin and a 4% concentration of citrate caused no effect on gram positive organisms (FIGS. 2, 3). Methylene blue also advantageously colors the lock solution blue, which provides a useful tool to medical personnel in preventing confusion between the lock solution and any other solution that might be present in a syringe or the catheter.
FIG. 3 is a representation of the effect of methylene blue (12 mg/100 ml) on concentration of a gram positive organism, Enterobacter Faecalis, without light exposure. […] It is expected that illumination will augment bacterial killing by methylene blue even more.

gram-negative organisms = assay: Killing of gram-negative organisms by methylene blue 0.01%; details: methylene blue 0.01% (10 mg/100 mL)
Escherichia Coli = assay: Effect of methylene blue on concentration of a gram negative organism without light exposure (FIG. 2); format: cell-based
Procedure: FIG. 2 is a graph depicting the effect of methylene blue (12 mg/100 ml) on concentration of a gram negative organism, Escherichia Coli, without light exposure.
as §1
FIG. 2 is a representation of the effect of methylene blue (12 mg/100 ml) on concentration of a gram negative organism, Escherichia Coli, without light exposure. […] It is expected that illumination will augment bacterial killing by methylene blue even more.

[1] = Relative density of citrate solutions (FIG. 6); format: physicochemical
Text: It is of course understood that the densities of citrate solutions increase as the concentrations of citrate therein increase.
The densities of various formulations of various catheter lock solutions are directly related to the citrate concentration, as reflected in the linear graph set forth in FIG. 6.

gram negative bacteria = details: large numbers of bacteria; cited from earlier work
[2] = methylene blue 12 mg/100 ml, without light exposure

CN(C)c1ccc2nc3ccc(=[N+](C)C)cc-3sc2c1 [methylene blue]
Time to inactivate all bacteria (Enterobacter Faecalis; gram positive organism): ≤ 1 days
Killing of Enterobacter Faecalis (Enterobacter Faecalis; [2]): All Enterobacter are killed within one day
Killing of gram-negative organisms (gram-negative organisms): kill gram-negative organisms within one day
Time to inactivate all bacteria (Escherichia Coli; gram negative organism): ≤ 1 days
Killing of E. Coli (Escherichia Coli; [2]): All E. Coli are killed within one day

O=C(O)CC(O)(CC(=O)O)C(=O)O [citrate]
Effect on gram positive organisms (Enterobacter Faecalis; 4% concentration of citrate): no effect
Relative density ([1]; 23% citrate): 1.120
Relative density ([1]; citrate concentration of 0.24M): about 1.045
Time until all gram negative bacteria are killed (gram negative bacteria): 1 to 7 days

heparin
Effect on gram positive organisms (Enterobacter Faecalis; heparin): no effect

Source: patent US20040092890A1, “Catheter lock solution including a photo-oxidant” (priority 2003, published 2004)
